The record followed here is PubChem BioAssay (NCI).

Experiment in all cases: NCI-60 cell line screen, 48 h
The test system of assay [1] is 786-0 renal.
Assay [2] relates to A549 NSCLC.
Assay [3] deals with BT-549 breast.
The subject of assay [4] is HCT-116 colon.
Assay [5] concerns HCT-15 colon.
The test system of assay [6] is HL-60(TB) leukemia.
For assay [7], the system named is HOP-92 NSCLC.
Assay [8] has as its system K-562 leukemia.
The test system of assay [9] is KM12 colon.
Assay [10] has as its system OVCAR-8 ovarian.
Assay [11] has as its system SK-MEL-5 melanoma.
Assay [12] relates to SW-620 colon.
Assay [13] concerns UO-31 renal.
In assay [14] the test system is EKVX NSCLC.
Assay [15] deals with IGROV1 ovarian.
Assay [16] has as its system OVCAR-3 ovarian.
For assay [17], the system named is RXF 393 renal.
Assay [18] has as its system SF-295 CNS.
The test system of assay [19] is SK-OV-3 ovarian.
The test system of assay [20] is OVCAR-5 ovarian.

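Interpolation was linear, between the two tested concentrations surrounding the appropriate level; five concentrations were tested over 48 hours in 96-well plates. Definition used: TGI = concentration required for complete inhibition of growth.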

Regarding `Cn1ccc(C(=O)N2CCSC2=S)c(OCc2ccccc2)c1=O`, the TGI in assay [1], in [2], in assay [3], in assay [4], in assay [5] and in [6] was greater than 100 µM throughout. For the same compound, the TGI in assay [7], in [8], in [9], in assay [10], in [11] and in assay [12] was greater than 100 µM in each case. Besides, in assay [13], the TGI is greater than 100 µM.
In the case of `O=[N+]([O-])c1ccc(-c2nc3ccc([N+](=O)[O-])cc3[nH]2)cc1`, the TGI in assay [1] is greater than 100 µM; in [2], 62.7 µM; in assay [3], 85.7 µM; in [14], greater than 100 µM; in assay [4] it was 38.3 µM; in [5] it was greater than 100 µM. The TGI in [7] was 59.4 µM; in assay [15], greater than 100 µM; in assay [9], greater than 100 µM; in [16], greater than 100 µM; in assay [10], greater than 100 µM; in [17] it was greater than 100 µM. Besides, the TGI is 66.1 µM in assay [18]; 44.9 µM in assay [11]; greater than 100 µM in [19]; greater than 100 µM in [12]; 61.4 µM in [13].
Take `CC(=O)Nc1ccc(N=C2C(c3ccccc3)=C(SC3=C(c4ccccc4)C(=Nc4ccc(NC(C)=O)cc4)c4ccccc43)c3ccccc32)cc1`: the TGI is greater than 100 µM in assay [1]; greater than 100 µM in assay [2]; 73.1 µM in assay [3]; greater than 100 µM in [14]; greater than 100 µM in assay [4]; greater than 100 µM in [5]. Moreover, the TGI in assay [7] was greater than 100 µM; in [15] it was greater than 100 µM; in assay [8], greater than 100 µM; in assay [9], 89.5 µM; in assay [16], greater than 100 µM; in [20] it was greater than 100 µM. The TGI in [10] was greater than 100 µM; in [17], 82.8 µM; in assay [18], greater than 100 µM; in assay [11], 31.3 µM; in [19] it was greater than 100 µM; in assay [12], greater than 100 µM. The compound also gave a TGI in assay [13] greater than 100 µM.
With `C/C(=C\c1ccccc1)C(=O)NCc1ccc(C(=O)NCCC(C)C)cc1`, the TGI in assay [1], in [2], in [3], in assay [14], in assay [4] and in [5] was greater than 100 µM throughout. For the same compound, the TGI in [7], in [15], in [8], in [9], in assay [16] and in assay [20] was greater than 100 µM throughout. The TGI in assay [10] was greater than 100 µM; in assay [17], 63.4 µM; in assay [18], greater than 100 µM; in assay [11] it was greater than 100 µM; in [19], 94.6 µM; in assay [12] it was greater than 100 µM. In addition, the TGI in assay [13] was greater than 100 µM.
For the compound `N#CC1Cc2cc3c(cc21)OCO3` (stereo unspecified), the TGI in [1], in assay [2], in [3], in assay [14], in assay [4] and in [5] was greater than 100 µM in each case. Also, the TGI in assay [7], in assay [15], in assay [8], in [9], in assay [16] and in assay [20] was greater than 100 µM throughout. Moreover, the TGI in [10], in assay [18], in [11], in [12] and in assay [13] was greater than 100 µM in each case.
As for `C#CCn1ncc2c(SC)ncnc21`, the TGI in assay [1], in assay [2], in assay [3], in assay [14], in [4] and in assay [5] was greater than 100 µM each time. Besides, the TGI in assay [7], in [15], in [8], in assay [9], in [16] and in [20] was greater than 100 µM throughout. In addition, the TGI in assay [10], in assay [17], in assay [18], in [11], in assay [19] and in [12] was greater than 100 µM throughout. In [13], the TGI is greater than 100 µM.
Regarding `COC(=O)C1CCOC(C)N1C(=O)OC(C)(C)C` (stereo unspecified), the TGI in assay [1], in assay [2], in [3], in assay [14], in assay [4] and in [5] was greater than 100 µM each time. Besides, the TGI in assay [6], in assay [15], in assay [8], in [9], in assay [16] and in assay [20] was greater than 100 µM each time. Besides, the TGI in [10], in assay [17], in [18], in assay [11], in assay [19] and in assay [12] was greater than 100 µM throughout. This compound also displayed a TGI in assay [13] greater than 100 µM.
Consider `Cn1c(N)c(C(N)=O)[nH]c1=S`, for which the TGI in assay [1], in assay [2], in assay [3], in [14], in assay [5] and in assay [6] was greater than 100 µM in each case. Further, the TGI in assay [15], in assay [8], in assay [9], in assay [16], in [20] and in [10] was greater than 100 µM each time. Further, the TGI in [17], in assay [18], in assay [11], in assay [19], in [12] and in assay [13] was greater than 100 µM throughout.
